Laboratory results as given in PMC7714403 (JCI Insight, 2020).

Assays:
[1] = system: MOLM13 and MOLM13 NRAS G12D cells; test: Cell growth of inducible MOLM13 NRAS G12D cells; type: cell-based, human; settings: 15 nM, doxycycline induction
Method: with DAPI in 0.1% Triton-X (ThermoFisher Scientific) PBS for 30 minutes at room temperature and protected from light. The DNA content was determined using a BD LSR II flow cytometer. The cell cycle distribution was […]
Cells that grow out of the CFU assays were washed with PBS twice to remove MethoCult. 100,000 cells were spun down on the slides using cytology funnels (Fisherbrand) in a cytocentrifuge at 600 rpm for 5 minutes.
Slides were then air dried overnight and stained with Hema 3 Stain Set (Thermo Fisher) according to manufacturer’s instructions. Images of the slides were taken at the Campus Microscopy & Imaging Facility Shared Resources here at OSUCCC using the light microscopy Zeiss Axioskop system.
Inducible MOLM13 NRAS G12D Cells
NRAS cDNA was cloned into pLVX -TetOne-Puro vector (Takara Bio USA). Site -directed mutagenesis to generate G12D mutation was carried out using the QuikChange II XL Site-Directed Mutagenesis Kit (Aligent) .
Mutagenesis primers were designed using the QuikChange Primer Design program and synthesized by Integrated DNA Technologies (IDT). Lentiviral production was carried out using the Lenti-X Packaging Single Shots (Takara Bio USA) according to manufactures protocol. Viral supernatant was then concentrated using PEG-it virus precipitation solution (System Biosciences). […]
Cells were counted every 2-3 days via Trypan […]

[2] = system: Ba/F3 cells expressing FLT3-ITD/F691L; test: MTT viability assay; type: cell-based; settings: Mus musculus, BaF3, 72 hours
Method: (§1) Drug treatments were carried out for 72 hours. Details are provided in the Supplemental Methods.

[3] = system: Ba/F3 cells expressing FLT3 D835Y; test: MTT viability assay; type: cell-based; settings: Mus musculus, BaF3; Ba/F3 FLT3 D835Y; MTT, 72 hours; read-out: IC50 viability
Method: as §1

[4] = system: MOLM13-RES cells; test: MTT viability assay; type: cell-based; settings: Homo sapiens; MOLM13-RES, FLT3-ITD/D835Y; MTT, 72 hours; read-out: IC50 viability
Method: as §1

[5] = system: MOLM13 cells; test: MTT viability assay; type: cell-based; settings: Homo sapiens, MOLM-13; MOLM13, FLT3-ITD; MTT, 72 hours; read-out: IC50 viability
Method: as §1

[6] = system: Ba/F3 cells expressing FLT3 ITD/D835Y; test: MTT viability assay; type: cell-based; settings: Mus musculus, BaF3; Ba/F3 FLT3 ITD/D835Y; MTT, 72 hours; read-out: IC50 viability
Method: as §1

[7] = system: Ba/F3 cells GFP+IL3; test: MTT viability assay; type: cell-based; settings: Mus musculus, BaF3; Ba/F3 GFP+IL3; MTT, 72 hours; read-out: IC50 viability
Method: as §1

[8] = system: Ba/F3 cells expressing FLT3 ITD/D835H; test: MTT viability assay; type: cell-based; settings: Mus musculus, BaF3; Ba/F3 FLT3 ITD/D835H; MTT, 72 hours; read-out: IC50 viability
Method: as §1

[9] = system: Ba/F3 cells expressing FLT3-ITD; test: MTT viability assay; type: cell-based; settings: Mus musculus, BaF3; Ba/F3 FLT3 ITD; MTT, 72 hours; read-out: IC50 viability
Method: as §1

[10] = system: MV4-11 cells; test: MTT viability assay; type: cell-based; settings: Homo sapiens; MV4-11, FLT3-ITD; MTT, 72 hours; read-out: IC50 viability
Method: as §1

[11] = system: Ba/F3 cells expressing FLT3 D835H; test: MTT viability assay; type: cell-based; settings: Mus musculus, BaF3; Ba/F3 FLT3 D835H; MTT, 72 hours; read-out: IC50 viability
Method: as §1

[12] = target: PIK3CG (Homo sapiens, UniProt P48736); test: KiNativ, OCI cells live cell; type: cell-based; settings: 2 h, labeling site ATP, peptide […]
[13] = target: T1, FLT3 D835H (Homo sapiens, UniProt P36888, D835H); test: KdELECT binding assay
T1 construct: purchased Eurofins DiscoverX

[14] = target: FMS (Homo sapiens, UniProt P07333); test: KiNativ, OCI cells live cell; type: cell-based; settings: 2 h, labeling site ATP Loop, peptide […]
[15] = target: SLK (Homo sapiens, UniProt Q9H2G2); test: KiNativ, OCI cells live cell; type: cell-based; settings: 2 h, labeling site Lys2, peptide […]
[16] = target: T2, ILK (Homo sapiens, UniProt Q13418); test: KiNativ, OCI cells live cell; type: cell-based; settings: 2 h
T2 sequence (Q13418 1-452): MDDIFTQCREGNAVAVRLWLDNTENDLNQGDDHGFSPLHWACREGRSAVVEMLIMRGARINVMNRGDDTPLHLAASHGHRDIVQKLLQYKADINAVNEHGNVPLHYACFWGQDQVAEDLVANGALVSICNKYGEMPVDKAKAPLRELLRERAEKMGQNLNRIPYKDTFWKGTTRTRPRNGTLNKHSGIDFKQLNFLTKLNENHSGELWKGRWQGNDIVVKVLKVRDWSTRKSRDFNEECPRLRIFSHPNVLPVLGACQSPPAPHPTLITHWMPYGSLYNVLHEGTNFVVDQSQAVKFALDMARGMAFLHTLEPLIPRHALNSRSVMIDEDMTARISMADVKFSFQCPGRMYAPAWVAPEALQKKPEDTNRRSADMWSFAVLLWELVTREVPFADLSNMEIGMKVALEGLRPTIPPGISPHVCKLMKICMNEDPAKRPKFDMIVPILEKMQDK

[17] = system: PKCa, PKCg; test: KiNativ, OCI cells live cell; type: cell-based, human; settings: labeling site Other, peptide NLIPMDPNGLSDPYVKLK
[18] = target: CDK6 (Homo sapiens, UniProt Q00534); test: KiNativ, OCI cells live cell; type: cell-based; settings: 2 h, labeling site Lys2, peptide […]
CDK6, sequence (Q00534 whole entry): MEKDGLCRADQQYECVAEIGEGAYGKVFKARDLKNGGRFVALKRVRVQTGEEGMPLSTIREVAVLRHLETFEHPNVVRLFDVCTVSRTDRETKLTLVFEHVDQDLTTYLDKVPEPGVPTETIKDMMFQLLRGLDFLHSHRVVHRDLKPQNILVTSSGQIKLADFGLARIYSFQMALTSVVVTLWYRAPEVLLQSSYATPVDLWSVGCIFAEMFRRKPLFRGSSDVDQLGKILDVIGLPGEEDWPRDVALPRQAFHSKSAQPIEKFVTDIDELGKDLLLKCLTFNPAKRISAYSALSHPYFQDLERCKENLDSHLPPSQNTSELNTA

FMS, sequence (P07333 20-972): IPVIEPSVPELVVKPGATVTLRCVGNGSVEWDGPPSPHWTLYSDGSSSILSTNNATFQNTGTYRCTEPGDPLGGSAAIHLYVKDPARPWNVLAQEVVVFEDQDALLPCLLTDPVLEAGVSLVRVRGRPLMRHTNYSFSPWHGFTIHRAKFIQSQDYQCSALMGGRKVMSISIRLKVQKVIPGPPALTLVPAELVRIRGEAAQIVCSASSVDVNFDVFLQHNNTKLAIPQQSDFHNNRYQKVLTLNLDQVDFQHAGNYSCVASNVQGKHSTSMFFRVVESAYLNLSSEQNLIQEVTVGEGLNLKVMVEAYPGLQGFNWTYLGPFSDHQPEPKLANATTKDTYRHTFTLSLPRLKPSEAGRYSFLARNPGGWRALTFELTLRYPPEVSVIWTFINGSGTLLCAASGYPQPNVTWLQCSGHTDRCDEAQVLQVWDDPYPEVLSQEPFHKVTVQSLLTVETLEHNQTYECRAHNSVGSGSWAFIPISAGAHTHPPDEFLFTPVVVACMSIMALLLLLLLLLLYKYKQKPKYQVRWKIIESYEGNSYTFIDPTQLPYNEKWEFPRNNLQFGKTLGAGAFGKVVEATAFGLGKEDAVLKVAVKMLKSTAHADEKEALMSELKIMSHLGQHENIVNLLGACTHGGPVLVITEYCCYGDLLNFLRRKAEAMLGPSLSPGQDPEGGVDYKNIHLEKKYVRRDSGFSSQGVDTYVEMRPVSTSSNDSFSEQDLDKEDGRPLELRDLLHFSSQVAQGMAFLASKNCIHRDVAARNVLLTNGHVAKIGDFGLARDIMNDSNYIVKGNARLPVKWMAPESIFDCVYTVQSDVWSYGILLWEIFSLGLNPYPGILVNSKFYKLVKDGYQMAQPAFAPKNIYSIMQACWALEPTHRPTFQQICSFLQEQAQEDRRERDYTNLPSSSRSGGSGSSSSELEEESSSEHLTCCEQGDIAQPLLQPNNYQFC
PIK3CG, sequence (P48736 whole entry): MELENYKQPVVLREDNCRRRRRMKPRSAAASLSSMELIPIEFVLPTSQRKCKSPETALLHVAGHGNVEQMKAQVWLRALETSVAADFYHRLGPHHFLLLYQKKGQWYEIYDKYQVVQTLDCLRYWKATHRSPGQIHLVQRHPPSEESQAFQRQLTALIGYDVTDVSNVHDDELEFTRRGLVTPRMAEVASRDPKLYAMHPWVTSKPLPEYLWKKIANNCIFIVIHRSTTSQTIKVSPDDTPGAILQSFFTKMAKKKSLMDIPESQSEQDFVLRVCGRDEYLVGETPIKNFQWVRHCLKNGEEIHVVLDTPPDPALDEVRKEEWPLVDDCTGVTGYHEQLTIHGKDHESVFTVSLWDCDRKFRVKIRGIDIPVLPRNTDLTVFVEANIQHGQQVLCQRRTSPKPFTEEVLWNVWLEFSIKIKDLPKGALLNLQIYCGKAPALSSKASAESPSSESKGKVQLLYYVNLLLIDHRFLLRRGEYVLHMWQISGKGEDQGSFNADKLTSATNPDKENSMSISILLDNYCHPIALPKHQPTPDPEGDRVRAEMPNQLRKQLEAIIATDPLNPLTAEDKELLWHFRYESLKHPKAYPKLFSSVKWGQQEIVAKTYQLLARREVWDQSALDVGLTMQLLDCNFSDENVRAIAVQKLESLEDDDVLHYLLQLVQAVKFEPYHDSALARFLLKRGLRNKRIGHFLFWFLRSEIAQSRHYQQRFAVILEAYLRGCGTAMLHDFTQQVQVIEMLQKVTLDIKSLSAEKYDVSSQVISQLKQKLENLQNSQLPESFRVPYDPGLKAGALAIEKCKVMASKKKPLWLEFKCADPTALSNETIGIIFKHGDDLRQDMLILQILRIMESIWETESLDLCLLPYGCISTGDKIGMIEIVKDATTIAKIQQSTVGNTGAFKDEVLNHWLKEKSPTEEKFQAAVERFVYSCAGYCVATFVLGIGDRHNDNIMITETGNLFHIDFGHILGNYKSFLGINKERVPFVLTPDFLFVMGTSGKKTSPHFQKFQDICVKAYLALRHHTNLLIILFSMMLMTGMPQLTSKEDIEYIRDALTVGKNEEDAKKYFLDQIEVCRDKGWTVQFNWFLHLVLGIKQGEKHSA
SLK, sequence (Q9H2G2 whole entry): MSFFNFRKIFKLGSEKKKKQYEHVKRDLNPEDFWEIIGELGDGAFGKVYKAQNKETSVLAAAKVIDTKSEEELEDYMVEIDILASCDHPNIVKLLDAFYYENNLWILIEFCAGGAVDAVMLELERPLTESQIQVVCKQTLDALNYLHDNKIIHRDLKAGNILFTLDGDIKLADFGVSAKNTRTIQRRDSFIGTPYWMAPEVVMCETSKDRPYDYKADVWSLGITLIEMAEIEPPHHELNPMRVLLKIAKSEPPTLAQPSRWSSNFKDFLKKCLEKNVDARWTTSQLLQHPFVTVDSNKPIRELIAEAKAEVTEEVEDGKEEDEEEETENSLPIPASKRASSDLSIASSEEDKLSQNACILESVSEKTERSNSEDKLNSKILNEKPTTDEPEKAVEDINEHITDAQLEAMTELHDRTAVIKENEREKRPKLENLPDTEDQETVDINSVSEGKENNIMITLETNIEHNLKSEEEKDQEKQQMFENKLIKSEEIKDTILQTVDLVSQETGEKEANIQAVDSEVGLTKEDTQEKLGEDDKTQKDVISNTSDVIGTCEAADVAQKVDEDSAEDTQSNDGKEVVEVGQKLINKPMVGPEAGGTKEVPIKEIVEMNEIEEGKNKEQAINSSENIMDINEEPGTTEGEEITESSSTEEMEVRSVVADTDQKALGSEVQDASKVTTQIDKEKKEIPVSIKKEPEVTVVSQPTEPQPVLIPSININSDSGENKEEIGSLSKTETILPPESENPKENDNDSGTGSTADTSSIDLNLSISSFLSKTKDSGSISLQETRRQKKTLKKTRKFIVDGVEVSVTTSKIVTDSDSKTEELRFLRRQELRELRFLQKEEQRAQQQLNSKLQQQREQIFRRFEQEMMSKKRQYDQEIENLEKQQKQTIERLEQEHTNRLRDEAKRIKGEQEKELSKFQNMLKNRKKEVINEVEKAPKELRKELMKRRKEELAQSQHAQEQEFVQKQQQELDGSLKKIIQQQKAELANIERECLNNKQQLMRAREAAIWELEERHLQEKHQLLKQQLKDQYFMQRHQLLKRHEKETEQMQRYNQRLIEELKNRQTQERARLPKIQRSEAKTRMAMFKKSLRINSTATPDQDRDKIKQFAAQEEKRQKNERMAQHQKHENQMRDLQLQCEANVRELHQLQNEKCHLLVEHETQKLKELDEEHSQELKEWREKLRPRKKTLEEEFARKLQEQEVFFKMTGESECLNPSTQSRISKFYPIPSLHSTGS

CCc1nc(C(N)=O)c(Nc2ccc(N3CCC(N4CCN(C)CC4)CC3)c(OC)c2)nc1NC1CCOCC1 [Gilteritinib, gilteritinib]
Cell growth [1]: resistant phenotype
IC50 [2]: 193 nM
IC50 [3]: 22 nM
IC50 [4]: 11 nM
IC50 [5]: 17 nM
IC50 [6]: 55 nM
IC50 [7]: 972 nM
IC50 [8]: 20 nM
IC50 [9]: 5.4 nM
IC50 [10]: 8 nM
IC50 [11]: 0.5 nM

CN1CCN(Cc2ccc(Nc3ncc(Cl)c(Nc4ccccc4S(=O)(=O)N(C)C)n3)cc2)CC1 [TP-0903]
Cell growth [1]: complete loss of viable cells
inhibition at 0.1 µM [12]: 5.5%
Kd [13]: 1.9 nM
IC50 [2]: 16 nM
IC50 [3]: 22 nM
IC50 [4]: 16 nM
IC50 [5]: 21 nM
IC50 [6]: 20 nM
IC50 [7]: 47 nM
IC50 [8]: 16 nM
IC50 [9]: 15 nM
IC50 [10]: 17 nM
IC50 [11]: 16 nM
inhibition at 0.1 µM [14]: -50%
inhibition at 0.1 µM [15]: 86.1%
inhibition at 0.1 µM ([16]; labeling site Lys1, peptide WQGNDIVVKVLK): -21.7%
inhibition at 0.1 µM ([16]; labeling site Protein Kinase Domain, peptide ISMADVKFSFQCPGR): -42.5%
Inhibition [17]: -15.0%
inhibition at 0.1 µM [18]: 74.1%
